Reference: patent US20090054403A1, “Treatment of Post-Traumatic Stress Disorder” (priority 2007, published 2009)
“Also recorded” adds a separate entry of the source. Values belong to the compound of their own block, whether it stands above or below them.

Key:
blood pressure = experiment: Radio-telemetry blood pressure in SHR, up to 30 days; format: in vivo; conditions: 1 mg/kg, p.o.
[1] = Plasma levels of nepicastat and N-acetyl metabolite in dogs, 2 mg/kg b.i.d.; format: in vivo, beagle dogs; conditions: after nepicastat 2 mg/kg bid, any of the days
Method: Male Beagle dogs (Marshall farms, North Rose, N.Y.) weighing between 9-16 kg were used in the study. The animals were allowed water ad libitum and given food once daily at ˜10.00 AM. Animals were randomly assigned to one of the following treatment groups (n=8/group): placebo (empty capsule), or nepicastat at 2 mg/kg b.i.d (4 mg/kg/day). Each animal received 2 doses daily, morning and afternoon (8-10 hours apart). Daily blood samples (10 ml) were drawn 6 h after the AM dose for measurement of plasma levels of nepicastat and catecholamines. The blood was collected in tubes containing heparin and glutathione and centrifuged at −4° C. within 1 h of collection. The plasma was separated and divided into two samples, one for the measurement of plasma catecholamines and the other for analysis of nepicastat.
Plasma NE, DA and EPI were anaylysed by HPLC using electrochemical detection. Plasma concentration of nepicastat was determined by HPLC using electrochemical detection.

[2] = system: blood pressure, heart rate, motor activity; experiment: Radio-telemetry blood pressure, heart rate, motor activity in normotensive rats, 7 days; format: in vivo, normotensive Wistar rats (Crl:COBS(WI)BR); conditions: 10 mg/kg po
Method: Male Crl:COBS(WI)BR rats of 15 weeks old were used. Twenty-four rats were chronically implanted with telemetry implants (TA11PA-C40, Data Sciences, Inc., St. Paul, Minn.) for measurement of arterial blood pressure, heart rate and motor activity. The rat was anesthetized with pentobarbital sodium (60 mg/kg, ip) and its abdomen shaved. Under aseptic conditions, an incision was made on midline. The abdominal aorta was exposed, and cannulated with the catheter of a telemetry transmitter unit. After the transmitter was sutured to the abdominal musculature, the skin was closed. Each rat was allowed to recover for at least 2 weeks before being subjected to drug administration. Three days prior to the start of the experiment, the rats were randomly divided into 4 treatment groups: Vehicle (p.o.), Hydralazine (10 mg/kg, p.o.), nepicastat (30 mg/kg, p.o.), nepicastat (100 mg/kg, p.o.).
Systolic blood pressure (SBP), diastolic blood pressure (DBP), mean blood pressure (MBP), heart rate (HR), and motor activity (MA) were monitored. After the pre-dose values for these parameters were established, respective groups of rats received a 7 day daily treatment of vehicle, nepicastat or hydralazine.
Both nepicastat and hydralazine were prepared in water with traces of Tween 80. All doses were given orally to the rat in 10 ml/kg and were expressed as free base equivalents.
A computerized data collection system was used to continuously collect data on SBP, DBP, MBP, HR, and MA. Data on each rat were collected every 5 min. for 10 sec. These were then averaged hourly and standard errors of the mean (SE) calculated. In this report, only data on MBP, HR and MA were presented. […] Body weights were recorded daily.

serum T3 and T4 levels = experiment: Thyroid function (serum T3, T4) in iodine-deficient rats, 10 days; format: in vivo, Sprague-Dawley rats; conditions: for effect on serum T3 and T4 levels: nepicastat 2.0 and 6.2 mg/kg b.i.d., methimazole 1 mg/kg b.i.d., po, 10 days
Method: Male Sprague-Dawley rats, weighing 180-200 grams, were fed an iodine deficient diet (Purina, 5891C, Lot 1478, 0.066±0.042 mg iodine/kg sample) ad libitum 14 days prior to treatment. Animals were weighed and randomly assigned to one of the following treatment groups (n=12 per group): Nepicastat at 2.0 mg/kg, Nepicastat at 6.2 mg/kg, R, Methimazole at 1 mg/kg, or vehicle at 1 ml/kg. Each group of rats was dosed orally in the evening and the following morning, approximately 12 hours apart, for 10 consecutive days.
Orbital blood samples were taken at day—3, 0, 3, 7, and 9 (day 0 was the first day of dosing). Serum samples were analyzed for T3 and T4 levels using a radioimmunoassay.
To statistically evaluate changes in T3 and T4 levels, a change from baseline was calculated from the day-3 time point. A non-parametric two-way within subject analysis of variance (ANOVA) was conducted. Also a one-way ANOVA was performed to detect if a significant difference from control occurred. Pairwise analyses between controls and each treatment group were carried out using Fisher's LSD strategy to control the experiment-wise error rate. For statistical analysis of catecholamine levels, a one-way ANOVA with factor DOSE was performed. Pairwise analyses between treated and controls at each dose were carried out using Fisher's LSD strategy to control the experiment-wise error rate.

[3] = system: mean arterial pressure and heart rate; experiment: Heart rate and mean arterial pressure in restrained SHR with SCH-23390 pretreatment; format: in vivo, spontaneous hypertensive rats; conditions: 200 μg/kg iv, 15 min post-iv period
Source text: Male, spontaneous hypertensive rats (280-345 g; Charles River Labs, Kingston, N.Y.) were fasted overnight then anesthetized with ether. A femoral artery and femoral vein were cannulated with PE50 tubing for recording of blood pressure and administration of compounds, respectively. Animals were then placed in MAYO restrainers and their feet loosely taped to the restrainer. Heparinized saline (50 units sodium heparin/ml) was used to maintain patency of each cannula throughout the experiment. The following parameters were continuously recorded using Modular Instruments MI^2 BioReport™ software installed on an IBM personal computer: mean arterial pressure (MAP), heart rate (HR), and the change from baseline for each parameter at specified time points in the experiment.
All compounds were dissolved on the day of use. nepicastat was dissolved in deionized water (vehicle) to a free base concentration of 1 mg/ml. Oral dosing volume for nepicastat or vehicle was 10 ml/kg. SCH-23390 was dissolved in saline (vehicle) to a free base concentration of 0.2 mg/ml. […] or saline were administered intravenously as a bolus in a volume of 1.0 ml/kg followed by 0.2 ml flush of isotonic saline.
Following surgical preparation, each animal was allowed a minimum one hour recovery period. Animals were randomly assigned to four treatment groups: vehicle (iv)/vehicle (po); vehicle (iv)/nepicastat (po); SCH-23390 (iv)/vehicle (po); or SCH-23390 (iv)/nepicastat (po). Once animals were stabilized (minimum one hour), baseline blood pressure and heart rate was determined by taking an average of each parameter over a 15 min period of time. Once baseline blood pressure and heart rate were established, animals were dosed intravenously with either SCH-23390 (200 μg/kg) or vehicle (saline, 1 ml/kg). Fifteen minutes later, animals were orally dosed with either nepicastat (10 mg/kg) or vehicle (deionized water, 10 ml/kg).
Recorded parameters were measured 15 min prior to intravenous dosing to establish baseline blood pressure and heart rate. Recorded parameters were then measured at 5, 10, and 15 min following intravenous administration of SCH-23390 or vehicle. Following oral administration of nepicastat or vehicle, recorded parameters were measured at 15, 30, 60, 90, 120, 150, 180, 210, and 240 min.
At the end of the experiment, each animal was anesthetized with halothane and euthanized via decapitation. The cortex, left ventricle (apex), and mesenteric artery were dissected out, weighed, and fixed in 0.4 M perchloric acid. […] Blood pressure and heart rate were analyzed separately. The change from baseline for blood pressure and heart rate were analyzed by an analysis of variance (ANOVA) with effects for treatment, time, and their interaction. […]

parkinsonian symptoms = experiment: Parkinsonian clinical rating scale (CRS) in MPTP-lesioned monkeys; format: in vivo, squirrel monkeys (Saimiri sciureus)
Method: A total of 24 squirrel monkeys (Saimiri sciureus), fourteen females and ten males were used in this study. The twenty-four animals were randomly assigned to one of four treatment groups, with 6 animals per group. The groups consisted of the following (1) group A: placebo (2) group B: 1 mg/kg/day; (3) group C: 4 mg/kg/day; and (4) group D: 10 mg/kg/day. In Group B, one animal died acutely following MPTP-lesioning, and was not replaced.
Animals were lesioned by the administration of MPTP at a concentration of 2.0 mg/kg (free-base) via subcutaneous injection to achieve a parkinsonian state (see FIGS. 151-156). A post-MPTP lesioning behavioral assessment was carried out 2 to 4 weeks after the last MPTP-Iesioning. Locomotor activity was monitored by IRAM in 60-minute sessions for 3 to 5 days. Clinical behavior (CAS) was assessed by one to three individuals rating over a period of 3 to 5 days.
Animals were tested for response to L-Dopa and the efficacy of drug nepicastat. Testing was carried out 4 to 12 weeks after the last MPTP dose. Twenty-tour squirrel monkeys were randomly assigned to 4 groups; Group A (6 animals) received placebo (water) treatment; Group B (5 animals) received drug nepicastat at 1 mg/kg/day (0.5 mg/kg twice daily); Group C (6 animals) received 4 mg/kg/day (2 mg/kg twice daily); and Group D (6 animals) received 10 mg/kg/day (5 mg/kg twice daily).
L-Dopa was administered at a concentration of either 2.5, 5, or 7.5 mg/kg by oral gavage twice daily (at 10 am and 2 pm) for 7 consecutive days. Behavior was determined by IRAM and CRS. Clinical rating was carried out 60 to 90 minutes following the 10 am morning dose on the last 4 days of treatment. Raters (one to three individuals) were blinded to the different treatment groups. IRAM assessment were preformed for 90 minutes immediately following drug administration at 2 pm on the last 2 to 5 days of drug treatment. There was a minimum 2 day washout period between each treatment dose.
Drug nepicastat or water (as placebo) was administered for 12 days following a minimum 2 day washout after L-Dopa dosing. Drug was administered twice daily at 10 am and 2 pm by oral gavage. Behavior was rated by IRAM and CRS. The CRS was conducted in the morning, 60 to 90 minutes after the 10 am dose of nepicastat on the last 5 days of drug treatment. Raters (one to three individuals) were blinded to the different treatment groups. IRAM assessments were preformed for 90 minutes immediately following drug administration at 2 pm on the last 5 days of drug treatment.
Eight parkinsonian features were rated in each animal and the total score was derived from the sum of these eight features. […]

Compound: CCOC(=O)[C@H](CCc1ccccc1)N[C@@H](C)C(=O)N1CCC[C@H]1C(=O)O [enalapril, reference compound]
effect on blood pressure, enalapril alone (blood pressure): failed to lower blood pressure | reduction in left ventricular mass, enalapril alone (blood pressure): did not occur

plasma levels of the N-acetyl metabolite [1]: No significant levels
Compound: CC(=O)NCc1c[nH]c(=S)n1[C@H]1CCc2c(F)cc(F)cc2C1 [N-acetyl metabolite of nepicastat]

Compound: NNc1nncc2ccccc12 [Hydralazine, reference compound]
time in which hypotensive effect subsided [2]: 10 h | maximal decrease in MBP ([2]; within 1 hr after dosing on day 1): −24 mmHg

reduction in serum levels of T3 (serum T3 and T4 levels; day 3, 4 h post-dose): 31% | reduction in serum levels of T4 (serum T3 and T4 levels; day 3, 4 h post-dose): 46% | reduction in serum levels of T3 (serum T3 and T4 levels; day 7, 4 h post-dose): 42% | reduction in serum levels of T4 (serum T3 and T4 levels; day 7, 4 h post-dose): 58% | reduction in serum levels of T3 (serum T3 and T4 levels; day 9, 4 h post-dose): 44% | T4 levels vs vehicle (serum T3 and T4 levels; day nine): only marginally (p<0.10) lower | effect on serum T3 and T4 levels (serum T3 and T4 levels; listed as methimazole): significantly reduced
Compound: Cn1cc[nH]c1=S [Methimazole, methimazole]
effect on serum T3 and T4 levels (serum T3 and T4 levels): significantly (p<0.05) lowered T3 levels on all treatment days

Compound: CN1CCc2cc(Cl)c(O)cc2[C@@H](c2ccccc2)C1 [SCH-23390, reference compound]
decrease in mean arterial pressure [3]: 5±1 mmHg

Compound: N[C@@H](Cc1ccc(O)c(O)c1)C(=O)O [L-Dopa, reference compound]
CRS / parkinsonian symptoms compared to post-MPTP (pre-treatment) state (parkinsonian symptoms; L-Dopa 2.5 mg/kg): No groups of animals demonstrated significant improvement; also recorded: no significant effect | CRS / parkinsonian symptoms compared to post-MPTP (pre-treatment) state (parkinsonian symptoms; L-Dopa 5 and 7.5 mg/kg, except Group B at 5 and Group C at 7.5 mg/kg): significant improvement; also recorded: significant effect
